# Reference: patent US20100029654A1, “CARDIOVASCULAR COMPOSITIONS AND USE OF THE SAME FOR THE TREATMENT OF ALZHEIMER'S DISEASE” (MOUNT SINAI SCHOOL OF MEDICINE, priority 2006, published 2010)
# Counter-ions that a name gives are not always drawn. Like-named read-outs stand apart in the source and are kept apart here.
# Assays:
# [1] = tested on: primary cortico-hippocampal neuron cultures
# Procedure: (§3) For in vitro treatments drugs available from “The Spectrum Collection” in stocks of 10 mM in DMSO were applied directly to cultures to the desired concentrations (final 1% DMSO); control primary neuron cultures from Tg2576 embryos were treated with vehicle resulting in a final 1% DMSO.
# (§4) Cell viability was assessed using a commercial available LDH assay kit according to the manufacture's instruction (Promega).
# Aβ1-42 [2] = assay: Aβ1-42 content in conditioned medium of primary cortico-hippocampal neuron cultures from Tg2576 mice (ELISA; primary and secondary dose-response screening); type: cell-based, mouse; conditions: for activity at 100 µM / EC50: Mus musculus; for activity at 100 µM: 24 h, read-out: Ab1-42 (% of ctl)
# [3] = tested on: primary cortico-hippocampal neuron cultures; remark: listed apart in the source
# Aβ1-40 = Aβ1-40 content in conditioned medium of primary cortico-hippocampal neuron cultures from Tg2576 mice (ELISA; primary and secondary dose-response screening); type: cell-based, mouse; conditions: for activity at 100 µM / EC50: Mus musculus; for activity at 100 µM: 24 h, read-out: Ab1-40 (% of ctl)
# How it was run: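 Primary cortico-hippocampal neurons from embryonic Tg2576 mice were plated at 1.0×10^5 cells per well on poly-D-lysine-coated 96-well plates in Neurobasal with 2% B27, 0.5 mM L-glutamine and 1% penicillin-streptomycin. Cultures received drug in 1% DMSO, and Aβ1-40 in the conditioned medium was measured by BioSource ELISA 24 hours after treatment, relative to vehicle controls.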
# Aβ1-42 [4] = assay: Aβ1-42 content in conditioned medium of primary cortico-hippocampal neuron cultures from Tg2576 mice (ELISA; primary and secondary dose-response screening); type: cell-based, mouse; conditions: for Ab1-42 (% of ctl) / activity at 100 µM: drug 100 μM; for reducing Aβ1-42: <85% of ctl; for activity at 100 µM: Mus musculus, Neuron, 24 h, read-out: Ab1-42 (% of ctl)
# How it was run: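 Primary cortico-hippocampal neurons from embryonic Tg2576 mouse brain were seeded on poly-D-lysine-coated 96-well plates at 1.0×10^5 cells per well in serum-free Neurobasal medium with 2% B27, 0.5 mM L-glutamine and 1% penicillin-streptomycin. For primary screening, duplicate wells received 100 μM drug (1% DMSO final). Vehicle-treated cultures served as controls, and Aβ1-42 in conditioned medium was measured by commercial ELISA.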
# Tg2576 mice [5] = assay: tolerability: body weight, fluid consumption, glucose tolerance; conditions: Tg2576, short-term dosing
# [6] = tested on: primary cortico-hippocampal neuron cultures; assay: MTT in primary screening
# Tg2576 mice [7] = assay: blood pressure (systolic, diastolic, MAP) by tail-cuff; type: in vivo, mouse
# Procedure: FIG. 1 Tg2576 mice are characterized by normal blood pressure under basal conditions. Baseline measurements of systolic, diastolic blood pressure, and mean arteriole blood pressure (MAP) in ˜11 month old female Tg2576 mice. Strain-, age-, gender-matched WT mice were measured using a commercial blood pressure analysis system designed specifically for small rodents (Hatteras Instruments, NC). Following manufacturer's instruction, mice were temporarily immobilized in a restraining chamber and an inflated tail-cuff wrapped around the tail was used to measure the systolic pressure, diastolic pressure, and MAP. Each blood pressure determination was calculated as the mean of 10 individual measurements per animal (n=6-10 group).
# FIG. 6A-C show body weight of mice in response to ˜3 weeks of treatment. […] FIG. 6D-F show the assessment of systolic, diastolic, and MAP blood pressure in Tg2576 mice in response to drug doses below or within the range of those prescribed in hypertension. Blood pressure measurements were conducted using a commercial blood pressure analysis system designed specifically for small rodents (Hatteras Instruments, NC). Following manufacturer's instruction, mice were temporarily immobilized in a restraining chamber and an inflated tail-cuff wrapped around the tail was used to measure pressures. Each blood pressure determination was calculated as the mean of 10 individual measurements per animal. In A-F, values represent mean±SEM values, n=3-5 mice per group. 2-tailed t-test: *P<0.05.
# Assessment of blood pressure and glucose utilization. Mouse blood pressure was routinely recorded using a commercial blood pressure analysis system designed specifically for small rodents (Hatteras Instruments, NC). […] Briefly, mice were given a single dose of glucose post-prandially (i.p. 2 g/kg body weight). Blood was collected from the tail-vein periodically over a 2-hour period. Blood glycemic content was assessed using the OneTouch LifeScan System, (LifeScan, Milpitas, Calif.) following the manufacturer's instruction.
# [8] = tested on: primary cortico-hippocampal neuron cultures; assay: lactate dehydrogenase (LDH) activity assay in parallel neuron cultures; conditions: for LDH (at 5F-5 M): Table IV
# Procedure: as §3, §4
# Aβ1-42 and Aβ1-40 = Aβ1-42 and Aβ1-40 content in peripheral blood (plasma, serum) by ELISA; type: in vivo, mouse
# Procedure: (§1) FIG. 7. […] Bar graphs represent group mean±SEM, n=3 mice per group. 2-tailed t-test: *P<0.05.
# (§2) Assessment of AD-type amyloid neuropathology in Tg2576 mice. For quantitative assessment of Aβ peptide in the brain, frozen pulverized tissue was homogenized in 5.0 M guanidine buffer, diluted (1:10) in phosphate-buffered saline containing 0.05% (v/v) Tween-20 and 1 mM Pefabloc protease inhibitors (Roche Biochemicals, Indianapolis, Ind.), and centrifuged for 20 min at 4° C. […] Serum Aβ content was analyzed using the same ELISA Kit, following manufacturer instructions.
# Aβ1-42 [9] = conditions: Tg2576, short-term dosing, subclinical or clinical concentrations
# Procedure: Cognitive behavioral function was assessed using the Morris water maze (MWM). After completion of the MWM test, blood pressure measurements were quantified as describe in FIG. 1 legends. Following MWM testing and blood pressure assessment, mice were sacrificed for neuropathological assessment. […] C, (inset), total immunoreactive APP content normalized to β-actin signal. In C-D, bar graphs represent group mean±SEM, n=6-10 mice per group.
# as §1, §2
# [10] = primary screening, drug 100 μM, Tg2576 neuron cultures, table sorted by Aβ1-42
# [11] = Primary Screening, drug 100 μM, table sorted by Aβ1-40
# [12] = Primary Screening, table sorted by Aβ1-40
# [13] = Neuron, Table IV, dose-response 0.01-100 μM, read-out: EC50 (M): Ab-lowering activity
# [14] = primary screening, table sorted by Aβ1-42
# [15] = Tg2576, 3 weeks, doses within the range used for hypertension
# [16] = Tg2576, 3 weeks, doses ~3 fold below the minimal hypertension dose
# [17] = Neuron, Primary Screening, drug 100 μM, table sorted by Aβ1-40
# [18] = Neuron, primary screening, drug 100 μM, Tg2576 neuron cultures, table sorted by Aβ1-42
# [19] = Neuron, Table IV, dose-response 0.01-100 μM, read-out: EC50 (M): Ab-lowering activity Abeta1-40
# [20] = primary screening, Tg2576 neuron cultures, table sorted by Aβ1-42
molecule,measurement,setting,value
"COc1cccc(OC)c1OCCNCC1COc2ccccc2O1.Cl (stereo not drawn) [2-(2,6-Dimethoxyphenoxyethyl) Aminomethyl-1,4-Benzodioxane Hydrochloride]",LDH (% of ctl),[1],103.9 % of ctl
same,Ab1-42 (% of ctl),Aβ1-42 [2],94.7 % of ctl
same,MTT (% of ctl),[3],95.5 % of ctl
same,Ab1-40 (% of ctl),Aβ1-40,82.6 % of ctl
same,reduced Aβ1-40,Aβ1-40,reduced Aβ1-40
CC(=O)[O-].CC(=O)[O-].[Cd+2] [Cadmium Acetate],LDH (% of ctl),[1],889.8 % of ctl
same,Ab1-42 (% of ctl),Aβ1-42 [2],3.8 % of ctl
same,reducing Aβ1-42,Aβ1-42 [2],useful in reducing Aβ1-42
same,MTT (% of ctl),[3],29.1 % of ctl
same,Ab1-40 (% of ctl),Aβ1-40,29.5 % of ctl
same,reduced Aβ1-40,Aβ1-40,reduced Aβ1-40
Cl.NCCc1ccc(O)c(O)c1 [Dopamine Hydrochloride],LDH (% of ctl),"[1]; Tg2576, mouse",559.5 % of ctl
same,reducing Aβ1-42,Aβ1-42 [2],useful in reducing Aβ1-42
same,activity at 100 µM,Aβ1-42 [2]; Neuron,78.3%
same,MTT (% of ctl),"[3]; Tg2576, mouse",95.7 % of ctl
same,reduced Aβ1-40,Aβ1-40,reduced Aβ1-40
same,activity at 100 µM,Aβ1-40; Neuron,85%
CC(Cc1ccc(O)cc1)NCC(O)c1cc(O)cc(O)c1 (stereo not drawn) [Fenoterol Hydrobromide],LDH (% of ctl),"[1]; Tg2576, mouse",104.3 % of ctl
same,activity at 100 µM,Aβ1-42 [2]; [10],78.8%
same,MTT (% of ctl),"[3]; Tg2576, mouse",93.9 % of ctl
same,activity at 100 µM,Aβ1-40; [10],89.3%
same,Ab1-40 (% of ctl),Aβ1-40; [11],89.3 % of ctl
same,Ab1-42 (% of ctl),Aβ1-42 [4]; [12],78.8 % of ctl
same,reducing Aβ1-42,Aβ1-42 [4]; primary screening,useful in reducing Aβ1-42
CCCCc1nc(Cl)c(CO)n1Cc1ccc(-c2ccccc2-c2nn[nH]n2)cc1 [Losartan],EC50,Aβ1-42 [2]; [13],0.0001 M
same,fluid intake,Tg2576 mice [5],did not significantly influence the amount of fluid intake
same,MTT (% of ctl),[6]; [12],71.3 % of ctl
same,MTT (% of ctl),[6]; [14],71.3 % of ctl
same,"systolic, diastolic, MAP blood pressure",Tg2576 mice [7]; [15],"decreased systolic, diastolic, and MAP blood pressure"
same,"systolic, diastolic, MAP blood pressure",Tg2576 mice [7]; [16],"did not significantly influence either systolic, diastolic or MAP blood pressure"
same,activity at 100 µM,Aβ1-40; [17],76%
same,activity at 100 µM,Aβ1-40; [18],76%
same,EC50,Aβ1-40; [19],0.000117 M
same,reduced Aβ1-40,"Aβ1-40; primary screening, <85% of ctl",reduced Aβ1-40
same,activity at 100 µM,Aβ1-42 [4]; [12],97.1%
same,activity at 100 µM,Aβ1-42 [4]; [20],97.1%
same,LDH (% of ctl),[8]; [12],110.4 % of ctl
same,LDH (at 5F-5 M),[8],no change
same,LDH (% of ctl),[8]; [14],110.4 % of ctl
COC(=O)C1=C(C)NC(C)=C(C(=O)OCCN(C)Cc2ccccc2)C1c1cccc([N+](=O)[O-])c1 (stereo not drawn) [Nicardipine Hydrochloride],EC50,Aβ1-42 [2]; [13],0.000119 M
same,fluid intake,Tg2576 mice [5],did not significantly influence the amount of fluid intake
same,MTT (% of ctl),[6]; [12],52.4 % of ctl
same,MTT (% of ctl),[6]; [14],52.4 % of ctl
same,plasma Aβ1-42 levels (and Aβ1-40),"Aβ1-42 and Aβ1-40; Tg2576, doses ~3 fold lower than minimal hypertension dose",prevented plasma accumulation of Aβ1-42 levels
same,plasma Aβ1-42 (and Aβ1-40),"Aβ1-42 and Aβ1-40; Tg2576, within the dosage range prescribed for hypertension",lowering responses were found
same,steady state levels of Aβ1-42 in hippocampal formation or cerebral cortex,Aβ1-42 [9],significantly reduced steady state levels of Aβ1-42
same,"systolic, diastolic, MAP blood pressure",Tg2576 mice [7]; [15],"decreased systolic, diastolic, and MAP blood pressure"
same,"systolic, diastolic, MAP blood pressure",Tg2576 mice [7]; [16],"did not significantly influence either systolic, diastolic or MAP blood pressure"
same,"systolic, diastolic, MAP blood pressure","Tg2576 mice [7]; Tg2576, any dose 3-18 mg/kg/day",No detectable changes
same,activity at 100 µM,Aβ1-40; [17],10.7%
same,activity at 100 µM,Aβ1-40; [18],10.7%
same,EC50,Aβ1-40; [19],3.64e-05 M
same,reduced Aβ1-40,"Aβ1-40; primary screening, <85% of ctl",reduced Aβ1-40
same,activity at 100 µM,Aβ1-42 [4]; [12],27.6%
same,activity at 100 µM,Aβ1-42 [4]; [20],27.6%
same,reducing Aβ1-42,Aβ1-42 [4]; primary screening,useful in reducing Aβ1-42
same,LDH (% of ctl),[8]; [12],104.2 % of ctl
same,LDH (at 5F-5 M),[8],no change
same,LDH (% of ctl),[8]; [14],104.2 % of ctl
COc1ccc(Cc2nccc3cc(OC)c(OC)cc23)cc1OC [Papaverine Hydrochloride],activity at 100 µM,Aβ1-42 [2]; [10],30.1%
same,EC50,"Aβ1-42 [2]; Neuron, secondary dose-response screening 0.01-100 μM, 24 hours, read-out: EC50 (molar) Aβ1-42",1.91e-05 M
same,MTT (% of ctl),"[3]; Tg2576, mouse, 100 µM",92.2 % of ctl
same,activity at 100 µM,Aβ1-40; [10],15.3%
same,EC50,"Aβ1-40; Neuron, secondary dose-response screening 0.01-100 μM, 24 hours, read-out: EC50 (molar) Aβ1-40",1.72e-05 M
same,Ab1-40 (% of ctl),Aβ1-40; [11],15.3 % of ctl
same,reduced Aβ1-40,"Aβ1-40; primary screening, <85% of ctl",reduced Aβ1-40
same,Ab1-42 (% of ctl),Aβ1-42 [4]; [12],30.1 % of ctl
same,reducing Aβ1-42,Aβ1-42 [4]; primary screening,useful in reducing Aβ1-42
same,LDH (% of ctl),[8]; [12],118.4 % of ctl
same,LDH at E-5M % of change,[8]; drug at E-5M,−8.9%
same,LDH (% of ctl),[8]; [14],118.4 % of ctl
Veratrine Sulfate,LDH (% of ctl),[1],124.4 % of ctl
same,MTT (% of ctl),[3],84.4 % of ctl
same,Ab1-40 (% of ctl),Aβ1-40; [11],58.5 % of ctl
same,reduced Aβ1-40,"Aβ1-40; primary screening, <85% of ctl",reduced Aβ1-40
same,Ab1-40 (% of ctl),Aβ1-40; [10],58.5 % of ctl
same,Ab1-42 (% of ctl),Aβ1-42 [4]; [12],87.1 % of ctl
same,Ab1-42 (% of ctl),Aβ1-42 [4]; [20],87.1 % of ctl
